{
  "source": "ChEMBL document CHEMBL1201862",
  "about": "“PubChem BioAssay data set” (2004)",
  "key": {"[1]": {"biological_target": "1-phosphatidylinositol 4,5-bisphosphate phosphodiesterase gamma-1 (Homo sapiens, UniProt P19174)", "sequence (P19174 whole entry)": "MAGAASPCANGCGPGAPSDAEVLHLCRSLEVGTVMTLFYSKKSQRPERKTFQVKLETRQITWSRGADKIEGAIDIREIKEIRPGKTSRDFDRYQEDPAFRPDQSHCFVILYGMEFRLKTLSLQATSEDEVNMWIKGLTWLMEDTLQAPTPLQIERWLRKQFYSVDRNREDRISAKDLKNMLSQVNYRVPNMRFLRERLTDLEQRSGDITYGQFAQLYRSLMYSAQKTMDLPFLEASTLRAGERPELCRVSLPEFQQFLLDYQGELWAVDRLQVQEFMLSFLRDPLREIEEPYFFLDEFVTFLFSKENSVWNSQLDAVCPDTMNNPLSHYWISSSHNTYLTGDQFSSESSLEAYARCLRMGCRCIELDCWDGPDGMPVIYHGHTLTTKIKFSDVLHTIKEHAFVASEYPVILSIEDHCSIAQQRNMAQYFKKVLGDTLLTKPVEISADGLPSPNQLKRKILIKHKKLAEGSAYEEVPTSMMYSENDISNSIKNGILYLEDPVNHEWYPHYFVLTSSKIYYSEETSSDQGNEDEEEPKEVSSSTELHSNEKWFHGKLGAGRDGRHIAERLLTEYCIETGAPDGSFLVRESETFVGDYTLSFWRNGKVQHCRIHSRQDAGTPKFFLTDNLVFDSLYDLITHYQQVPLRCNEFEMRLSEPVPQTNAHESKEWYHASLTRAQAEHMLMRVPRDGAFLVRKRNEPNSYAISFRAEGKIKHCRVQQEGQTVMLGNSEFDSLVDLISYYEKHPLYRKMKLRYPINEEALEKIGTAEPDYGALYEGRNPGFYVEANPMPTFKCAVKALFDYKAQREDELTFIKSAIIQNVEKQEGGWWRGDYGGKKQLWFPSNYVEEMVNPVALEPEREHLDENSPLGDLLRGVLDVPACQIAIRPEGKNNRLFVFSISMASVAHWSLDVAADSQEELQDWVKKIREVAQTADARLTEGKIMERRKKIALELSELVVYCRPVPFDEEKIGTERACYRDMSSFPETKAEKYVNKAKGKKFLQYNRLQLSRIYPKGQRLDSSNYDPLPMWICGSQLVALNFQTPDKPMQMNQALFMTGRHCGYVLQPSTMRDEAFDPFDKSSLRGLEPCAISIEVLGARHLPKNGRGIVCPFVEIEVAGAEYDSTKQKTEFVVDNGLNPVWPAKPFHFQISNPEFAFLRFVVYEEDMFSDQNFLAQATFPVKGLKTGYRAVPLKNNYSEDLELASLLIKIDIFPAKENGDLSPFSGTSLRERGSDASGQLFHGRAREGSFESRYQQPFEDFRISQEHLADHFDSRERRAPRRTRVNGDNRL", "experiment": "Counterscreen for inhibitors of phospholipase C isozymes (PLC-B3): Fluorescence-based biochemical high throughput dose response assay to identify inhibitors of phospholipase C isozymes (PLC-gamma1)."}, "[2]": {"biological_target": "1-phosphatidylinositol 4,5-bisphosphate phosphodiesterase beta-3 (Homo sapiens, UniProt Q01970)", "sequence (Q01970 whole entry)": "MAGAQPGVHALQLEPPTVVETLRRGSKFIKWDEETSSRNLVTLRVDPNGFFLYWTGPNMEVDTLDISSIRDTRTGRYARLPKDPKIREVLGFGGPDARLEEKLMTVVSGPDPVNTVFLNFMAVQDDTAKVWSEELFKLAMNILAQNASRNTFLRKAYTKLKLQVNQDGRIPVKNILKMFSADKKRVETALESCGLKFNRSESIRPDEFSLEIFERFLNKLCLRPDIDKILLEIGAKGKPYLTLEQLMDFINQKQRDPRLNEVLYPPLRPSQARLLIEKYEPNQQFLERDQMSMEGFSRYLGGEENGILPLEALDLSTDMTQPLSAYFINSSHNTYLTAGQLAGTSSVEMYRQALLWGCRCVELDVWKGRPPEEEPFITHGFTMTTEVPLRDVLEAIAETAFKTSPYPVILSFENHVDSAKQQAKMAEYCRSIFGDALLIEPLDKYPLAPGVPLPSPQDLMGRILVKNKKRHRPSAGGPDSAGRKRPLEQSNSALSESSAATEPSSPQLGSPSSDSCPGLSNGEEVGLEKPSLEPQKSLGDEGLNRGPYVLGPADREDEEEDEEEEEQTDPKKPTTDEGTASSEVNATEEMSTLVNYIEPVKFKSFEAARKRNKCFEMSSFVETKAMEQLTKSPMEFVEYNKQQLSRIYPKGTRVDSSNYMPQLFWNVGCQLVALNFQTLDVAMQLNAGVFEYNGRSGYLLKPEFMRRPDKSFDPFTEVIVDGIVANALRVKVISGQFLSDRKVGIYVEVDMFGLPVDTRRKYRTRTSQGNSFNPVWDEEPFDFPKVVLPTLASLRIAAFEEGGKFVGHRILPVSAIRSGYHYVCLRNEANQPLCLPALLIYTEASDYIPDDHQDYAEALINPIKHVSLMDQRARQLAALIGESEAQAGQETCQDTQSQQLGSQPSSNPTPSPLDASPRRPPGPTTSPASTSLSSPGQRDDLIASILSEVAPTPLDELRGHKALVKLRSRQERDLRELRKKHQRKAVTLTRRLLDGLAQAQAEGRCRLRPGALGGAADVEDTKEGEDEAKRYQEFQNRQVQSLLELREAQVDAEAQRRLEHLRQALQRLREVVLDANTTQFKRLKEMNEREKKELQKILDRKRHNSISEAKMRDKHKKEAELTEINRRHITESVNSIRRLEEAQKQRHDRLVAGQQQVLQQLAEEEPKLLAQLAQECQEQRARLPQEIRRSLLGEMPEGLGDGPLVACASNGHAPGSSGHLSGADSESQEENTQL", "experiment": "Fluorescence-based biochemical high throughput dose response assay to identify inhibitors of phospholipase C isozymes (PLC-B3)."}, "[3]": {"biological_target": "NAD-dependent protein deacylase sirtuin-5, mitochondrial (Homo sapiens, UniProt Q9NXA8)", "sequence (Q9NXA8 whole entry)": "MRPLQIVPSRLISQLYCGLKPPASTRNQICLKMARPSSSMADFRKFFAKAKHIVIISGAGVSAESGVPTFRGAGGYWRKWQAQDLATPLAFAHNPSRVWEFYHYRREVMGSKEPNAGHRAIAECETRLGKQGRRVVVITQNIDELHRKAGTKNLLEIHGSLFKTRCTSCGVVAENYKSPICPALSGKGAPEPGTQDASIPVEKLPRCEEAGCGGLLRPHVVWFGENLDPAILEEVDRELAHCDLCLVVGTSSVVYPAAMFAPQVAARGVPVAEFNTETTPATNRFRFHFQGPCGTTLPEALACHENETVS", "experiment": "sirtuin-5 deacylation blockers, concentration series – biochemical, fluorescence imaging, cherry-pick, set 5, dose response (AID 720591);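 also: desuccinylation of succinyl peptide AMC substrate read as fluorescence after trypsin release; potency of inhibitors that lower fluorescence and may act on trypsin instead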"}, "[4]": {"biological_target": "T1, Zinc finger protein mex-5 (Caenorhabditis elegans, UniProt Q9XUB2)", "T1 sequence (Q9XUB2 whole entry)": "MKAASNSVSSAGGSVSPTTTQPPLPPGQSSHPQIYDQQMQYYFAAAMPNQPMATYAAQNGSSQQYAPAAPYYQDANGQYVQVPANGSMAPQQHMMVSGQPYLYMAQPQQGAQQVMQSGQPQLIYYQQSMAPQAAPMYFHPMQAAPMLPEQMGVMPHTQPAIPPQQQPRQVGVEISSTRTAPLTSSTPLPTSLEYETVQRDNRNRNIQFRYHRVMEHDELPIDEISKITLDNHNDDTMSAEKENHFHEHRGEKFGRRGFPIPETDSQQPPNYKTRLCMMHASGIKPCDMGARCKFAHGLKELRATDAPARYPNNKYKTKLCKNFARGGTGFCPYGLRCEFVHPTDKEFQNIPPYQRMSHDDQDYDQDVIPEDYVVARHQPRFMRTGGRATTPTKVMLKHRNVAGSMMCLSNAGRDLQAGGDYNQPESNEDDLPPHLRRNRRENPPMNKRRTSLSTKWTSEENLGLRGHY", "experiment": "potency of MEX-5 RNA-binding blockers – biochemical, C. elegans, fluorescence polarization, dose response (AID 1960)"}, "cells [5]": {"experiment": "cells", "settings": "A549"}, "[6]": {"biological_target": "T2, RNA-binding protein pos-1 (Caenorhabditis elegans, UniProt G5EF15)", "T2 sequence (G5EF15 whole entry)": "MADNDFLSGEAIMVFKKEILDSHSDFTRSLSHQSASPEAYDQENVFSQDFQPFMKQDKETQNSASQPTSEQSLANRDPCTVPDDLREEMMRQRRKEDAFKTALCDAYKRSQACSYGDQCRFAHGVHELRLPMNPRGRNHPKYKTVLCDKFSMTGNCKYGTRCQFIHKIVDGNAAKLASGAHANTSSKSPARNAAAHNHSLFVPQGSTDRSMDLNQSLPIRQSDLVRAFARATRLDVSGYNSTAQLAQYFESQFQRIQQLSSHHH", "experiment": "disruptors of C. elegans POS-1 RNA interaction – biochemical, fluorescence polarization, dose response (AID 1964);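 also: purified POS-1 fused to maltose binding protein made in E. coli; potency of compounds blocking POS-1 binding to fluorescent RNA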"}, "[7]": {"biological_target": "Disintegrin and metalloproteinase domain-containing protein 17 (Homo sapiens, UniProt P78536)", "sequence (P78536 whole entry, the tested form may be a part)": "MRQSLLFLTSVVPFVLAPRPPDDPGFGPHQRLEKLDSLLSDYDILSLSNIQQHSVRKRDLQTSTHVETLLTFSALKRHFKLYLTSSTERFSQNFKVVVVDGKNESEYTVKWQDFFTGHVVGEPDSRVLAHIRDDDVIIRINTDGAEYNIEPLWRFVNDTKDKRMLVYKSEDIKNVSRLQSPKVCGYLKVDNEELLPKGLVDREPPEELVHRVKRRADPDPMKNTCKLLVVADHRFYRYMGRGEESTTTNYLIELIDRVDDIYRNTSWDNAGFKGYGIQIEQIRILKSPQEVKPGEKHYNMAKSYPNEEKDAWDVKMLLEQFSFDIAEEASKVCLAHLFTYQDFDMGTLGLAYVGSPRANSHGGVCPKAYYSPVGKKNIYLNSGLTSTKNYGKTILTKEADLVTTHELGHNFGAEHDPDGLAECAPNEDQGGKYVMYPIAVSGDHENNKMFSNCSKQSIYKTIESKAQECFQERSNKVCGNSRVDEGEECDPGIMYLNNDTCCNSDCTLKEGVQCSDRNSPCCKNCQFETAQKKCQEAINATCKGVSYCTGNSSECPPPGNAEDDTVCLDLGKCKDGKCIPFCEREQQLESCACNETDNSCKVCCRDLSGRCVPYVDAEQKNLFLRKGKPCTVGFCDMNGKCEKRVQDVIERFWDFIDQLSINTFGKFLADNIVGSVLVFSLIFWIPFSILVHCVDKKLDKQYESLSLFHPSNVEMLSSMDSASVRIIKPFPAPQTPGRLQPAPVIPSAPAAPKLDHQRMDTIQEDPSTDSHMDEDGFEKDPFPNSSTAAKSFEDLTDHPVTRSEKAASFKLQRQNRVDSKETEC", "experiment": "inhibition of ADAM17 substrate cleavage – biochemical, quenched FRET substrate, counter-screen for ADAM10 exosite inhibitor project, dose response (AID 743253)"}, "[8]": {"experiment": "potency of ADAM10 substrate cleavage blockers – biochemical, QFRET, dose response (AID 743254);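 also: ADAM10 enzyme with the DM2 quenched FRET peptide as substrate; EDANS fluorescence gain as the protease cuts the substrate; inhibitor potency against ADAM10 proteolytic activity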"}, "[9]": {"experiment": "T. cruzi growth inhibition in host cells, dose response, cell-based, plate reader, dry powder, set 2 (AID 652275)", "format": "functional"}, "cells [10]": {"experiment": "cells", "format": "functional, cell-based"}, "Large T antigen": {"biological_target": "Large T antigen (Simian virus 40, UniProt P03070)", "sequence (P03070 whole entry)": "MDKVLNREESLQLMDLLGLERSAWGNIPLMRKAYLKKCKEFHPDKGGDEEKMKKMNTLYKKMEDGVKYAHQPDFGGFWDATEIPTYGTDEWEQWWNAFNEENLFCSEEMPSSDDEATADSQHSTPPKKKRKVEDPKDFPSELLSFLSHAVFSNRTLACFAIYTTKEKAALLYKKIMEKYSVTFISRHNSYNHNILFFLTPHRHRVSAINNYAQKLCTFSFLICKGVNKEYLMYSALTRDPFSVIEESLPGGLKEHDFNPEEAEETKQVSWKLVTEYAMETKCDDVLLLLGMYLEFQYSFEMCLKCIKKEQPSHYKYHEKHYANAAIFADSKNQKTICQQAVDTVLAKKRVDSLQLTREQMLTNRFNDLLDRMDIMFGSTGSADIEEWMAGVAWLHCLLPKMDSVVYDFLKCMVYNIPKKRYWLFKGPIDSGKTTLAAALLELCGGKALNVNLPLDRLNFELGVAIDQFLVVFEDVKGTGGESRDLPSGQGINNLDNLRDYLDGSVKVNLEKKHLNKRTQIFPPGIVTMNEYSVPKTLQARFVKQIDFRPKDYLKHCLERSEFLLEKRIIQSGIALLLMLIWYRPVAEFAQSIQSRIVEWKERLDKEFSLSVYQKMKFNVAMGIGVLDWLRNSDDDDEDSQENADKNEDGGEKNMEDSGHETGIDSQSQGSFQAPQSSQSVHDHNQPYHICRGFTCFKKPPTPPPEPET", "format": "functional, Betapolyomavirus macacae"}, "[11]": {"biological_target": "T3, Trace amine-associated receptor 1 (Homo sapiens, UniProt Q96RJ0)", "T3 sequence (Q96RJ0 whole entry)": "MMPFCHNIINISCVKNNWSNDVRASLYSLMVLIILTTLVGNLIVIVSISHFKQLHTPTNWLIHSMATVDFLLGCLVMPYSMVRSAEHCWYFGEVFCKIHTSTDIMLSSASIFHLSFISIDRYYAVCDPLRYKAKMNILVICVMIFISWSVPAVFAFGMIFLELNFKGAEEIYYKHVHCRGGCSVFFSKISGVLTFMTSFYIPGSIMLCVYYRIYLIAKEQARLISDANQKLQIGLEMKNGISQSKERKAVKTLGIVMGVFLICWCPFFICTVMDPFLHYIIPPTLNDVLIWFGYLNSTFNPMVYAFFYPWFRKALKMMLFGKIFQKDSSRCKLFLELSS", "experiment": "Fluorescence-based cell-based high throughput dose response assay to identify agonists of the human trace amine associated receptor 1 (TAAR1).", "format": "functional"}, "cells [12]": {"experiment": "cells", "format": "functional, cell-based", "remark": "listed apart in the source"}, "[13]": {"biological_target": "T3, Trace amine-associated receptor 1", "experiment": "Counterscreen for agonists of the human trace amine associated receptor 1 (hTAAR1): Fluorescence-based cell-based high throughput dose response assay to identify hTAAR1 agonist that also desensitize TAAR1 receptor response.", "format": "functional"}, "[14]": {"experiment": "Dd2 malaria parasite growth inhibition potency – SYBR Green, dry powder samples, dose response (AID 1159566);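 also: potency for growth inhibition with lower SYBR green DNA signal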", "format": "functional, cell-based"}, "[15]": {"experiment": "P. falciparum Dd2 growth inhibitors, dose response, SYBR Green, cherry-picked samples (AID 1159567)", "format": "functional, cell-based"}, "[16]": {"experiment": "growth inhibition of yeast DHODH-expressing 3D7 parasites – SYBR Green, dry powder samples, dose response (AID 1159570);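 also: parasite growth measured after 72 hours of compound exposure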", "format": "functional, cell-based"}, "[17]": {"experiment": "toxicity to human HepG2 hepatoma cells – cell-based, plate reader, dry powder samples, cytotoxicity control, dose response (AID 1159569);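 also: inhibitor potency with signal falling toward the positive control level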", "format": "functional"}, "[18]": {"experiment": "growth inhibition of PfATP4-mutant resistant parasites – NITD609-resistant line, SYBR Green, dry powder, dose response (AID 1159571);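 also: parasites synchronized at ring stage by sorbitol before testing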", "format": "functional, cell-based"}, "[19]": {"experiment": "toxicity to human hepatoma HepG2 cells – cell-based, cherry-picked samples, cytotoxicity control, dose response (AID 1159577)", "format": "functional"}, "[20]": {"experiment": "HCT116 cell viability decrease, GSK3B pretreatment – CellTiter-Glo, IC50, dose response (AID 1117339)", "format": "functional", "settings": "HCT-116"}, "[21]": {"experiment": "rise of 2N DNA cells, HeLa – IC50, dose response (AID 1117349)", "format": "functional, cell-based"}, "[22]": {"experiment": "cytotoxicity toward Colo320 cells – cell-based, CellTiter-Glo luminescence, IC50, dose response (AID 1117334)", "format": "functional", "settings": "COLO 320"}, "[23]": {"experiment": "cytotoxicity toward HT-29 cells – cell-based, CellTiter-Glo luminescence, IC50, dose response (AID 1117330)", "format": "functional"}, "[24]": {"experiment": "cytotoxicity toward HCT116 cells – cell-based, CellTiter-Glo luminescence, IC50, dose response (AID 1117332)", "format": "functional", "settings": "HCT-116"}, "[25]": {"experiment": "RKO cell viability reduction, dose response, CellTiter-Glo luminescence (AID 1117322)", "format": "functional"}, "[26]": {"experiment": "rise of 4N DNA cells, HeLa – IC50, dose response (AID 1117351)", "format": "functional, cell-based"}},
  "note": "The source made the active and inactive calls.",
  "data": [
    {"smiles": "COc1ccccc1COC(=O)c1cccc(S(=O)(=O)N2CCCC2)c1", "values": [
      {"measurement": "IC50", "setting": "[1]", "result": "> 123 µM (inactive)"},
      {"measurement": "IC50", "setting": "[2]", "result": "> 123 µM (inactive)"}
    ]},
    {"smiles": "CC(C)C[C@H](NC(=O)C1CCN(C(=O)[C@H](Cc2ccccc2)NC(=O)OC(C)(C)C)CC1)C(=O)O", "values": [
      {"measurement": "AC50", "setting": "[3]", "result": "> 30 µM (inactive)"}
    ]},
    {"smiles": "O=C1c2ccccc2S(=O)(=O)c2cc(N3CCC(C(=O)N4CCCCC4)CC3)ccc21", "values": [
      {"measurement": "EC50", "setting": "[4]", "result": "> 300 µM (not active)"},
      {"measurement": "AC50", "setting": "cells [5]", "result": "> 52 µM (inactive)"},
      {"measurement": "EC50", "setting": "[6]", "result": "> 300 µM (not active)"}
    ]},
    {"smiles": "CN1C(=O)c2cc(NS(=O)(=O)c3ccc(F)cc3)ccc2OC[C@H]2O[C@@H](CC(=O)NCC(F)(F)F)CC[C@@H]21", "values": [
      {"measurement": "IC50", "setting": "[1]", "result": "45.1 µM (inactive)"},
      {"measurement": "IC50", "setting": "[7]", "result": "> 69.6 µM (inactive)"},
      {"measurement": "IC50", "setting": "[8]", "result": "> 69.6 µM (inactive)"},
      {"measurement": "IC50", "setting": "[2]", "result": "47.2 µM (inactive)"}
    ]},
    {"smiles": "CC(C)N1C[C@H](CNCc2ccc(Cl)cc2)Oc2c(NC(=O)c3ccncc3)cccc2C1=O", "values": [
      {"measurement": "AC50", "setting": "[9]", "result": "0.731 µM (active)"}
    ]},
    {"smiles": "Oc1ccc(/C=N\\Nc2cnnc(O)c2Cl)c(O)c1", "values": [
      {"measurement": "IC50", "setting": "cells [10]", "result": "> 29.9 µM (inactive)"},
      {"measurement": "IC50", "setting": "Large T antigen", "result": "15.7 µM (active)"},
      {"measurement": "EC50", "setting": "[11]", "result": "1.16 µM (active)"},
      {"measurement": "EC50", "setting": "cells [12]", "result": "> 29.9 µM (inactive)"},
      {"measurement": "IC50", "setting": "[13]", "result": "24.5 µM (inactive)"}
    ]},
    {"smiles": "C[C@@H]1CN([C@@H](C)CO)C(=O)c2c(c3ccccc3n2C)-c2ccccc2CO[C@@H]1CN(C)C(=O)Nc1cccc(Cl)c1Cl", "values": [
      {"measurement": "AC50", "setting": "[14]", "result": "0.85 µM (active)"},
      {"measurement": "AC50", "setting": "[15]", "result": "1.52 µM (active)"},
      {"measurement": "AC50", "setting": "[16]", "result": "1.62 µM (active)"},
      {"measurement": "AC50", "setting": "[17]", "result": "23.5 µM (active)"},
      {"measurement": "AC50", "setting": "[18]", "result": "0.572 µM (active)"}
    ]},
    {"smiles": "OC[C@@H]1Nc2ccc(-c3cccc(F)c3)cc2[C@@H]2[C@H]1CCN2Cc1ccncc1", "values": [
      {"measurement": "AC50", "setting": "[14]", "result": "0.638 µM (active)"},
      {"measurement": "AC50", "setting": "[15]", "result": "1.27 µM (active)"},
      {"measurement": "AC50", "setting": "[19]", "result": "27.6 µM (active)"},
      {"measurement": "AC50", "setting": "[16]", "result": "2.02 µM (active)"},
      {"measurement": "AC50", "setting": "[17]", "result": "29.5 µM (active)"},
      {"measurement": "AC50", "setting": "[18]", "result": "0.814 µM (active)"}
    ]},
    {"smiles": "COc1cccc2c1C(=O)c1c(O)c3c(c(O)c1C2=O)C[C@@](O)(C(=O)CO)C[C@@H]3O[C@H]1C[C@H](N)[C@H](O[C@@H]2CCCCO2)[C@H](C)O1", "note": "[PIRARUBICIN]", "values": [
      {"measurement": "IC50", "setting": "[20]", "result": "1.28 µM (active)"},
      {"measurement": "IC50", "setting": "[21]", "result": "0.0795 µM (active)"},
      {"measurement": "IC50", "setting": "[22]", "result": "2.01 µM (active)"},
      {"measurement": "IC50", "setting": "[23]", "result": "> 20 µM (inactive)"},
      {"measurement": "IC50", "setting": "[24]", "result": "0.911 µM (active)"},
      {"measurement": "IC50", "setting": "[25]", "result": "1.01 µM (active)"},
      {"measurement": "IC50", "setting": "[26]", "result": "0.0806 µM (active)"}
    ]}
  ]
}
